Experiment [1] has as its system Methicillin-resistant Staphylococcus aureus (SAP400). Put plainly: Broth dilution MIC against MRSA isolate. In kind it is cell-based. In general terms: In broth dilution the organism is exposed to a series of concentrations in liquid medium.
The subject of experiment [2] is Pseudomonas aeruginosa (CF mucoid and non-mucoid). Put plainly: Broth dilution MIC against P. aeruginosa isolates from cystic fibrosis patients. Type of experiment: cell-based.
The subject of experiment [3] is Acinetobacter baumannii (PDR). Put plainly: Broth dilution MIC against pan drug-resistant A. baumannii isolate. The following applies: isolate AB (PDR). Type of experiment: cell-based.
Experiment [4] deals with Klebsiella pneumoniae clinical isolates.
Where [5] appears, read: isolate KP (Morici), ATCC #33495.

Structures are written as SMILES. Values after ≈ are worked out from the molar mass of the structure shown. Where two headings read alike, the source gives them in different places.

Take `CC(C)(O/N=C(\C(=O)N[C@@H]1C(=O)N2C(C(=O)[O-])=C(C[n+]3ccccc3)CS[C@H]12)c1csc(N)n1)C(=O)O` [CAZ, Ceftazidime]: the MIC was above 150 µM in experiment [1]; 115.9 µM (≈ 63.3 µg/mL) in experiment [2] (isolate PA (mucoid)); above 150 µM in experiment [2] (isolate PA (non-mucoid)); above 150 µM in experiment [3]; above 150 µM in experiment [4] (isolate KP 2146 (NDM-1)); above 150 µM in experiment [4] (isolate KP (6)). For the same molecule, the minimal inhibitory concentration (MIC) is above 150 µM in experiment [4] (isolate KP (46)); 132.7 µM (≈ 72.5 µg/mL) in experiment [4] (isolate KP (398)); above 150 µM in experiment [4] (isolate KP (CRE)); above 150 µM in experiment [4] (setting [5]); above 150 µM in experiment [4] (isolate KP (ST258C3)); above 150 µM in experiment [4] (isolate KP (ST258I2)). Moreover, the MIC in experiment [4] (isolate KP (ST396)) and in experiment [4] (isolate KP (St258 C2)) was above 150 µM each time.

In the case of `C[C@@H](O)[C@H]1C(=O)N2C(C(=O)O)=C(S[C@@H]3CN[C@H](C(=O)N(C)C)C3)[C@H](C)[C@H]12` [MEM, Meropenem], the MIC in experiment [1] is above 150 µM; in experiment [2] (isolate PA (mucoid)) it was 13.3 µM (≈ 5.1 µg/mL); in experiment [2] (isolate PA (non-mucoid)), 4 µM (≈ 1.53 µg/mL); in experiment [3], above 150 µM; in experiment [4] (isolate KP 2146 (NDM-1)), above 150 µM; in experiment [4] (isolate KP (6)), 0.2 µM (≈ 0.0767 µg/mL). Besides, the MIC in experiment [4] (isolate KP (46)) is 0.4 µM (≈ 0.153 µg/mL); in experiment [4] (isolate KP (398)), 0.2 µM (≈ 0.0767 µg/mL); in experiment [4] (isolate KP (CRE)) it was 108.3 µM (≈ 41.5 µg/mL); in experiment [4] (setting [5]), 0.2 µM (≈ 0.0767 µg/mL); in experiment [4] (isolate KP (ST258C3)), above 150 µM; in experiment [4] (isolate KP (ST258I2)), above 150 µM. The MIC in experiment [4] (isolate KP (ST396)) was 0.3 µM (≈ 0.115 µg/mL); in experiment [4] (isolate KP (St258 C2)), above 150 µM.

A word on the MIC: it is the lowest concentration found to suppress growth.

Values taken from US20230310540A1, “PEPTIDE COMPOSITIONS AND METHODS OF USE THEREOF” (priority 2020, published 2023).
